“And” between values parts separate entries of the source, which are not always exact repeats. Equal values may be shown once. “Also recorded” adds a separate entry of the source. Read-outs that look alike come from different tables or passages of the source.
Experiments:
[1] = system: mAB/LPS-induced experimental arthritis; assay: mAB/LPS-induced experimental murine arthritogenic model, paw thickness (five treatment days); format: in vivo, BALB/c male mice
Procedure: The mice were administered with 1, 5 and 25 mg/kg once daily oral (PO) gavage throughout five successive treatment days.

[2] = system: mAB/LPS-induced experimental arthritis; assay: Histopathological evaluation of the tibiotarsal joint of arthritic mice; format: in vivo; set-up: key to Fibrin deposition / Inflammatory infiltration in the synovial membrane / Pannus formation (reflected by proliferation of granulation tissue) / Cartilage disruption / Hyaline cartilage destruction (reflected by resorption/erosion in the cartilage) / Subchondral bone destruction (reflected by resorption/erosion by osteoclasts and loss of bone) / Overall assessment: “determined as arthritis” / Synovial hyperplasia / Synovial villus formation: 0=unremarkable; 1=minimal; 2=mild; 3=moderate; 4=marked; settings: 25 mg/kg
Procedure: Compound A), total 16 animals were tested with Vehicle Control or 25 mg/kg of (+) isomer for histopathological evaluation. […] Each limb from the middle of the tibia and distally, to include the ankle joint, i.e., the joint between the leg and foot (tibial-tarsus joint), was trimmed mid-longitudinally, and both halves were embedded in paraffin and slides of 6 micron thickness were cut and stained by hematoxylin and eosin. Histopathological changes in the joints were described and scored, using semiquantitative grading of five grades (0-4), taking into consideration the severity of the changes (0=unremarkable, 1=minimal, 2=mild, 3=moderate, 4=marked). […] All typical ranges of changes characteristically seen in this arthritis were noted.

[3] = system: Human peripheral blood total T cells stimulated with anti-CD3 antibody; assay: Cytokine and chemokine production by anti-CD3-stimulated T cells (cytometric bead array, Luminex 100); format: cell-based
Procedure: (§1) Cytokine and chemokine protein levels were analyzed by cytometric bead array on a Luminex 100. CAIA model: […] Compound A and ETN were administered once daily on days 3-13. […] Both hind paws (left and right) of each animal were examined for signs of arthritogenic responses in blinded fashion. Arthritic reactions were scored and recorded according to a 0-4 scale in ascending order of severity. Hind paw thickness was measured in mm using a Mitutoyo Electronic Digital Caliper.

[4] = system: collagen antibody-induced arthritis; assay: Mouse model of collagen antibody-induced arthritis (CAIA); format: in vivo, Male BALB/c mice
Procedure: as §1

[5] = Pharmacokinetic data for study drugs; set-up: species or system RA patients; settings: human, in vivo; for concentration at 7 day: read-out: Cmin
[6] = system: normal primary human chondrocytes stimulated with IL-1, IL-6 and IL-6R; assay: IL-7 gene expression assay in chondrocytes; format: cell-based
Procedure: (§2) IL-7 Gene Expression Assay: […] Normal primary human chondrocytes and rheumatoid arthritis synovial fibroblasts purchased from Asterand (Detroit, Mich.) were thawed into a T-75 flask and cultured for 2-3 weeks to reach confluency. The media was 20% premium non-heat inactivated FBS-DMEM/F-12 (Invitrogen 11330-032)+1% pen/strep and 1% L-Glutamine. […] Upon reaching 90% confluency (usually in 1-2 days post-plating), the cells were serum starved for 20 hours by replacing the complete media with 2 ml serum-free media. The cells were treated with the test compounds for 1 hour at 37° C. […] The cells were then washed with cold PBS. Ribonucleic acid (RNA) was isolated by adding 600 μl RLT lysis buffer (Qiagen RNAEasy kit cat#74104), passing the cells through the Qiashredder (Qiagen cat#23800) followed by RNA isolation according to manufacturers' instructions (Qiagen RNAEasy kit). Purified RNA was reverse transcribed into cDNA with thermal cycler for real-time reverse transcriptase polymerase chain reaction (RTPCR) analysis. Interleukin-7 gene expression assays were carried out using the 7500 Real Time PCR system. A GAPDH gene expression assay control was run for each sample and was used as a normalization control.

[7] = system: rheumatoid arthritis synovial fibroblasts stimulated with IL-1, IL-6 and IL-6R; assay: IL-7 gene expression assay in synovial fibroblasts; format: cell-based, human
Procedure: as §2

[8] = system: stimulated primary human normal chondrocytes; assay: Cell surface protein expression assay (flow cytometry); format: cell-based
Procedure: Cell Surface Protein Expression Assay: Normal primary human chondrocyte were thawed into a T-75 flask and grown for 2-3 weeks to reach confluency in 20% premium non-heat inactivated FBS-DMEM/F-12 (Invitrogen 11330-032)+1% pen/strep and 1% L-Glutamine. The cells were plated (1.0×10^6 cells/10 ml of complete media) in a 100×20 mm tissue culture plate. The next day, the media was replaced with 10 ml serum-free media for 20 min to serum starve the cells. Compound A (0.1-10 μM) was added for 1 hour at 37° C. (0.25% final DMSO). In addition, cytokines IL-1β (10 ng/ml), IL-6 (10 ng/ml), and IL-6R (20 ng/ml) were added and the cells continued incubation overnight (18 hours) at 37° C. The cells were harvested by a non-enzymatic cell dissociation solution (Millipore S-004-B) then washed once in cold stain buffer (BD Pharmigen 554656) at 300×g for 5 minutes. The cells were resuspended and aliquoted into three 5 ml round bottom tubes plus two additional aliquots for control. The cells were washed again in cold stain buffer at 300×g for 5 minutes. The cells were stained with PE mouse anti-human: CD54 (ICAM-1) (BD Pharmigen 555511) and Integrin αVβ3 anti (Millipore MAB1976H). The samples were vortexed and incubated for 30 minutes at 4° C. while being protected from light. […] After a final wash, 500 μl of stain buffer was added to each sample and analyzed by flow cytometry.

[9] = system: Human bone marrow cells; assay: Osteoclastogenesis induced by dexamethasone and Vitamin D; format: cell-based; settings: 10 nM dexamethasone and 10 nM Vitamin D; day 7
Procedure: Human bone marrow cells were treated with Compound A and with 10 nM dexamethasone and 10 nM Vitamin D to differentiate cells into osteoclasts. Fresh media and Compound A were added every 3 days. At day 7 supernatant was collected and adherent cells were isolated to obtain RNA. Day 7 cells were stained with TRAPS and the number of osteoclasts was counted.

[10] = system: Normal human osteoblast cells (nHOST); assay: Osteoblast production of RANKL and OPG (ELISA); format: cell-based; settings: 7 days with 10 nM dexamethasone and 10 nM Vitamin D
Procedure: Normal human osteoblast cells (nHOST, source: Lonza) were plated in 6 well plates and incubated overnight for cell attachment. Cells were treated for 7 days with Compound A and with 10 nM dexamethasone and 10 nM Vitamin D. Compound and media was refreshed every 3-4 days. On Day 7 supernatent was collected for RANKL and OPG by ELISA.

[11] = system: mAB/LPS-induced experimental arthritis; assay: Antibody-induced arthritis in mice (mAb/LPS model, 11 treatment days)
[12] = cited from earlier work
[13] = tibiotarsal joint, grade 0-4, individual animals No. 25-32

Molecule: CCOc1cc([C@@H](CS(C)(=O)=O)N2C(=O)c3cccc(NC(C)=O)c3C2=O)ccc1OC [Compound A, (S)-N-(2-(1-(3-ethoxy-4-methoxyphenyl)-2-(methylsulfonyl)ethyl)-1,3-dioxoisoindolin-4-yl)acetamide]
- hind paw thickness (suppression of paw swelling) ([1]; 5 mg/kg PO once daily, limited to Day 9, vs. Vehicle Control): A lesser extent (p<0.05 vs. Vehicle Control)
- hind paw thickness (suppression of paw swelling) ([1]; 25 mg/kg PO once daily, vs. Vehicle Control): highly statistically significant (p<0.01 vs. Vehicle Control) and constant suppression of paw swelling; also recorded: statistically significant reduction of paw swelling
- arthritis by histopathological evaluation ([2]; all samples from treated animals): practically no existing arthritis
- Cartilage disruption [2, 13]: 0
- Fibrin deposition [2, 13]: 0 (6×) and 1 (2×)
- Hyaline cartilage destruction (reflected by resorption/erosion in the cartilage) [2, 13]: 0
- Inflammatory infiltration in the synovial membrane [2, 13]: 0
- Overall assessment: “determined as arthritis” [2, 13]: 0
- Pannus formation (reflected by proliferation of granulation tissue) [2, 13]: 0
- Subchondral bone destruction (reflected by resorption/erosion by osteoclasts and loss of bone) [2, 13]: 0
- Synovial hyperplasia [2, 13]: 0
- Synovial villus formation [2, 13]: 0
- IC50s, production of all T cell cytokines and chemokines measured (IL-2, IL-4, IL-13, IFN-γ, TNF-α, CXCL10, CCL3, and CCL4) ([3]; anti-CD3 antibody, 2 days, range over all analytes): 0.015 to 0.36 µg/mL
- inhibition of IL-2, IL-4, IL-13, IFN-γ, TNF-α, CXCL10, CCL3, and CCL4 ([3]; human T cells): resulted in inhibition
- arthritis by histopathological analysis ([4]; 25 mg/kg): practically no existing arthritis
- hind-paw arthritic reaction scores and thickness ([4]; 5 and 25 mg/kg orally once daily on days 3-13): significantly reduced (p<0.01)
- synovial hyperplasia, synovial villus formation, fibrin deposition, inflammatory infiltration in the synovial membrane, pannus formation, cartilage disruption, and subchondral bone destruction ([4]; high dose): inhibited
- Cmax ([5]; 20-mg, day-7): 419 ng/mL
- concentration at 7 day ([5]; 20-mg, day-7): 4.9 ng/mL
- IL-7 gene expression ([6]; 0.1-10 μM, normal primary human chondrocytes): significantly inhibited
- inhibition of IL-7 gene expression compared with methotrexate and etanercept ([6]; dose ranges encompassing the respective Cmax of MTX and ETC): more effective inhibitor of IL-7 gene expression than methotrexate and etanercept
- IL-7 gene expression ([7]; 0.1-10 μM): significantly inhibited
- alpha-v-beta-3 (αvβ3) integrin expression [8]: inhibited expression
- intercellular adhesion molecule 1 (ICAM-1) expression [8]: inhibited expression
- osteoclast formation (osteoclastogenesis) [9]: inhibit osteoclast formation; also recorded: significantly inhibits osteoclastogenesis
- sRANKL ([10]; 1 μM and 10 μM): significant decrease
- OPG [10]: increase
- RANKL/OPG ratio [10]: significantly inhibit
- mean group arthritogenic scoring value of both hind paws ([11]; 25 mg/kg, vs. Vehicle Control on Days 9, 11 and 14, respectively): statistically to extremely significant reductions (p<0.05, p<0.01, p<0.001)
- treatment-related adverse reactions ([11]; 5 and 25 mg/kg PO once daily, 11 days, 14-day observation period): No obvious treatment-related adverse reactions
- mean group percentage change in hind paw thickness vs. arthritis induction initiation (Day 0) ([11]; 5 or 25 mg/kg, vs. Vehicle Control, Days 7, 9, 11 & 14): highly significantly lower (P<0.01)

Molecule: CCOc1cc([C@@H](CS(C)(=O)=O)N2Cc3cccc(NC(=O)C4CC4)c3C2=O)ccc1OC [Compound B, (S)-N-(2-(1-(3-ethoxy-4-methoxyphenyl)-2-(methylsulfonyl)ethyl)-3-oxoisoindolin-4-yl)cyclopropanecarboxamide]
- Cmax ([5]; 200-mg day-7): 195 ng/mL
- concentration at 7 day ([5]; 200-mg day-7): 40 ng/mL

Molecule: CN(Cc1cnc2nc(N)nc(N)c2n1)c1ccc(C(=O)N[C@@H](CCC(=O)O)C(=O)O)cc1 [MTX, methotrexate]
- IL-7 gene expression ([7]; comparators): no significant effects
- Cmax ([12]; Depending on RA patients): 300 to 1040 ng/mL
- maximum plasma concentration (Cmax) [12]: 400 ng/mL

Molecule: etanercept
- IC50, IL-13 and IP-10 ([3]; anti-CD3 antibody, 2 days): 0.016 to 0.062 µg/mL
- IC50, TNF-α ([3]; anti-CD3 antibody, 2 days): 0.0015 µg/mL
- IL-7 gene expression ([7]; comparators): no significant effects
- Cmax (ng/ml) ([12]; RA patient 6 months 25-mg biweekly): 3000 (1700 to 5600) ng/ml
- Cmax (ng/ml) ([12]; RA patients 50-mg weekly): weekly: 2400 ± 1500 ng/ml
- Cmin ([12]; RA patients): 1200 ± 700 ng/mL
- maximum plasma concentration (Cmax) [12]: 1600 ng/mL
- Bioavailability ([12]; in vivo): 76%
- mean group arthritogenic scoring value of both hind paws ([11]; 6.25 mg/kg, p<0.001 vs. Vehicle Control, study days 7, 9, 11 and 14): highly to extremely statistically lower (p<0.01 & p<0.001, respectively)
